Laboratory results from publication PMC12068008 (International Journal of Molecular Sciences, 2024).
Like-named read-outs stand apart in the source and are kept apart here.

Key:
Na^+, K^+-ATPase = conditions: cited from earlier work
[1] = DPPH radical scavenging assay; conditions: for antioxidative ability (DPPH): 0.01, 0.1 and 1 mM, 30 min; for IC50: 30 min incubation, 25 °C
Experimental: DPPH (2,2-diphenyl-1-picrylhydrazyl) radical scavenging assay was used to assess free-radical scavenging activity of synthesized compounds. Initially, 1 × 10^−4 M working solution of DPPH was prepared, and 350 µL was added to 350 µL of the solution of each compound. The final concentrations of the compounds (Q, 2a, and 2b) in the samples were 1 × 10^−3 M, 1 × 10^−4 M, and 1 × 10^−5 M. The control included ethanol only and DPPH–ethanol solution without compounds. The mixtures were incubated at 25 °C in the dark for 30 min. After incubation, the absorbance of the samples at 517 nm was measured in duplicate by using a UV/Vis spectrophotometer (Lambda 35, Perkin Elmer, Waltham, MA, USA). The DPPH radical scavenging ability was calculated using the following equation:(1) Antioxidative activity(%)=Acontrol−Asample/Acontrol×100% where Asample and Acontrol represent the absorbance at 517 nm of the sample and control, respectively. All samples were analysed in duplicate.

physchem = assay type: physicochemical; conditions: shake flask, n-octanol/water, 25 °C, 1 × 10^−4 M; read-out: logP, experimentally obtained
Experimental: To measure the lipophilicity (expressed as the partition coefficient) of the synthesized compounds and their constituents, using a “shake-flask” method, a two-phase system composed of n-octanol and deionized water was used. The stock solutions of the compounds were diluted with water to the concentration of 1 × 10^−4 M, and this solution was used for further investigation. […] The concentration of the compounds was calculated from their extinction coefficient at 260 nm that was previously determined.

eqBuChE = eqBuChE (Equus caballus, UniProt P81908); test: BuChE inhibition (Ellman's procedure); assay type: biochemical; conditions: for inhibition at 100 µM: read-out: Percentage Inhibition BuChE
Sequence of eqBuChE (P81908 whole entry): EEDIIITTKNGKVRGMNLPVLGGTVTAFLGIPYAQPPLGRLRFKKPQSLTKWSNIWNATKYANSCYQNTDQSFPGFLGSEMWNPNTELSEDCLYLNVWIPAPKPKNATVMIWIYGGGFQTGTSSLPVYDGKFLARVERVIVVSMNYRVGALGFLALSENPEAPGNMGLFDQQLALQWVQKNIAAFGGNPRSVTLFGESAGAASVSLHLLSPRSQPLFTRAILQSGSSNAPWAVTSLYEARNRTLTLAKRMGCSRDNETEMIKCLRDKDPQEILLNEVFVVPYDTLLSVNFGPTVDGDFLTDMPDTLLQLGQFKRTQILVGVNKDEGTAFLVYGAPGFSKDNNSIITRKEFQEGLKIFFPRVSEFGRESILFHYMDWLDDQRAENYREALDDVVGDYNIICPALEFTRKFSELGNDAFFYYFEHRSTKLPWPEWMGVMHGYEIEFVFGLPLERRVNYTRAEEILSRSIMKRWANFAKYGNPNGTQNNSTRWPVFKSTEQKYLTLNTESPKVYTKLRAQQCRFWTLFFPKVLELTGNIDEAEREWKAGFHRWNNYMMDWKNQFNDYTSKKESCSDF
Experimental: (§1) The abilities of compounds to inhibit AChE and BuChE activity were determined following Ellman’s procedure, with AChI and BuChI as the enzyme substrate, respectively, and DTNB as a chromogenic reagent. AChE’s and BuChE’s working solutions were prepared at 20 mM TRIS and deionized water, respectively. AChI and BuChI solutions were prepared in deionized water. A 0.01 M DTNB solution was prepared with 0.1 M phosphate buffer (pH 7) containing 0.15% (w/v) sodium bicarbonate. Stock solutions (10 mM) of investigated compounds were prepared daily by dissolving solid compounds in DMSO. The reaction mixture containing phosphate buffer, DTNB, enzyme, and compound was preincubated 30 min at 37 °C. After the preincubation time, the enzyme reaction was initiated by adding appropriate substrate and left to incubate for 6 min. After incubation, 0.1 M SDS was added to stop the reaction. Absorbance measurements were performed using a UV/Vis spectrophotometer (Lambda 35, Perkin Elmer), measuring absorbance at 412 nm. A blank assay, containing all components except the enzyme, was used to account for non-enzyme reactions. The control solution contained all components except the inhibitor. All experiments were conducted in triplicate, and the results are expressed as the mean percentage enzyme activity compared to the control value. IC50 values were determined graphically using Origin 9 Microsoft Windows.

eeAChE = eeAChE (Electrophorus electricus, UniProt O42275); test: biochemical; conditions: read-out: Percentage Inhibition AChE
Sequence of eeAChE (O42275 24-633): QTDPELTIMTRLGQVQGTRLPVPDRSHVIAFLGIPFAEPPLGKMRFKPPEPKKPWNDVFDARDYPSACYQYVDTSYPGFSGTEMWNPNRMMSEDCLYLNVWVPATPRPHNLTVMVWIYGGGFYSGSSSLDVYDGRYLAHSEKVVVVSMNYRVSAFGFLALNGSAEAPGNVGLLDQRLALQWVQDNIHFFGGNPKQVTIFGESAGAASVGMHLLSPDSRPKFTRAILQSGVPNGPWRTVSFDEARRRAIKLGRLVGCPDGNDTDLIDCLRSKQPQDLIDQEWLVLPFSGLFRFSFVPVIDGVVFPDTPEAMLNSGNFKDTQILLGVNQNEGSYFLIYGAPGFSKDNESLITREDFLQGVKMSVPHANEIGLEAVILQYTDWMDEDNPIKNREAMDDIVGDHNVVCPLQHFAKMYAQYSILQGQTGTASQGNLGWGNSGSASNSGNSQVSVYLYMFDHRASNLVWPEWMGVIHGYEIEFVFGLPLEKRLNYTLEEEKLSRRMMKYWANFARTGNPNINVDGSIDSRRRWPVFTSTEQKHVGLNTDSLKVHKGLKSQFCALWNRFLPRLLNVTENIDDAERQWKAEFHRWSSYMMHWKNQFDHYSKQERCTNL
Experimental: as §1, with “A 0.01 M DTNB solution was prepared with 0.1 M phosphate buffer (pH 7) containing 0.15% (w/v) sodium bicarbonate.” left out, “Absorbance measurements were performed using a UV/Vis spectrophotometer (Lambda 35, Perkin Elmer), measuring absorbance at 412 nm.” left out

MDA-MB-468 cells = test: SRB assay, MDA-MB-468 cells; assay type: cell-based, human; conditions: Homo sapiens, MDA-MB-468, 72 h, read-out: IC50 MDA-468
Experimental: (§2) Two human breast cancer cell lines, MDA-MB-231 (HTB-26) and MDA-MB-468 (HTB-132), human cervical cancer cell line HeLa (CCL-2), and MRC-5 (CCL-171) fibroblasts were purchased from the American Type Culture Collection (ATCC, Manassas, VA, USA). All cell lines were cultured in Dulbecco’s Modified Eagle’s Medium (DMEM) with 4500 mg/L glucose and L-glutamine (Capricorn Scientific, Ebsdorfergrund, Germany), supplemented with 10% foetal bovine serum (PAN-Biotech, Aidenbach, Germany), 10,000 U/mL penicillin, and 10 mg/mL streptomycin solution (Capricorn Scientific) under standard conditions at 37 °C in a humidified 5% CO2 atmosphere (ESCO, Lifesciences Group, Singapore).
Cells were seeded on a 96-well plate (Thermo Fisher Scientific, Waltham, MA, USA) at 2 × 10^3 cells per well in DMEM medium. For the analysis of the concentration- and time-dependent effect of the analysed compounds, cell monolayers were treated 24 h after seeding with concentrations 1 × 10^−6, 1 × 10^−5, and 1 × 10^−4 M for 24, 48, or 72 h. Cell viability was detected using sulforhodamine B (SRB) assay, based on the staining of cellular proteins. The assay was performed according to the procedure described by Skehan et al.. The cells were fixed with 10% trichloroacetic acid (TCA, CARLO ERBA Reagents GmbH, Emmendingen, Germany) for 1 h at 4 °C, washed with water, and stained for 15 min with 0.4% SRB (Sigma-Aldrich Chemie GmbH, Steinheim, Germany) in 1% acetic acid. The unbound SRB dye was rinsed with 1% acetic acid, while the protein-bound dye was extracted with a 10 mM Tris base (Sigma-Aldrich). The absorbance was measured at 550 nm with a reference wavelength of 690 nm in a microplate reader (Wallac, VICTOR2 1420 Multilabel counter, PerkinElmer, Turku, Finland). The results were expressed as a percentage of the control, where the cell growth of the control is set to 100%. IC50, defined as the concentration that caused a 50% loss of cell growth, was calculated by non-linear regression analysis with the ED50plus v1.0 software. The selectivity index (SI) was determined according to the following formula:(2) SI=IC50 for fibroblast cell line/IC50 for tumour cell line
(§3) The assay was performed two times in 4 replicates for every experimental group. The statistical significance of differences between treated and untreated cells was estimated by the independent Student’s t-test, with the level of significance set at p < 0.05.

MRC-5 cells = test: SRB assay, MRC-5 cells; assay type: cell-based; conditions: Homo sapiens, MRC5, 72 h, read-out: IC50 MRC
Experimental: as §2
Cells were seeded on a 96-well plate (Thermo Fisher Scientific, Waltham, MA, USA) at 2 × 10^3 cells per well in DMEM medium. For the analysis of the concentration- and time-dependent effect of the analysed compounds, cell monolayers were treated 24 h after seeding with concentrations 1 × 10^−6, 1 × 10^−5, and 1 × 10^−4 M for 24, 48, or 72 h. Cell viability was detected using sulforhodamine B (SRB) assay, based on the staining of cellular proteins. The assay was performed according to the procedure described by Skehan et al.. The cells were fixed with 10% trichloroacetic acid (TCA, CARLO ERBA Reagents GmbH, Emmendingen, Germany) for 1 h at 4 °C, washed with water, and stained for 15 min with 0.4% SRB (Sigma-Aldrich Chemie GmbH, Steinheim, Germany) in 1% acetic acid. The unbound SRB dye was rinsed with 1% acetic acid, while the protein-bound dye was extracted with a 10 mM Tris base (Sigma-Aldrich). The absorbance was measured at 550 nm with a reference wavelength of 690 nm in a microplate reader (Wallac, VICTOR2 1420 Multilabel counter, PerkinElmer, Turku, Finland). The results were expressed as a percentage of the control, where the cell growth of the control is set to 100%. […] The selectivity index (SI) was determined according to the following formula:(2) SI=IC50 for fibroblast cell line/IC50 for tumour cell line […]

MDA-MB-231 cells = test: SRB assay, MDA-MB-231 cells; assay type: cell-based; conditions: Homo sapiens, MDA-MB-231, 72 h, read-out: IC50 MDA-231
Experimental: (§4) All cell lines were cultured in Dulbecco’s Modified Eagle’s Medium (DMEM) with 4500 mg/L glucose and L-glutamine (Capricorn Scientific, Ebsdorfergrund, Germany), supplemented with 10% foetal bovine serum (PAN-Biotech, Aidenbach, Germany), 10,000 U/mL penicillin, and 10 mg/mL streptomycin solution (Capricorn Scientific) under standard conditions at 37 °C in a humidified 5% CO2 atmosphere (ESCO, Lifesciences Group, Singapore).
(§5) Cells were seeded on a 96-well plate (Thermo Fisher Scientific, Waltham, MA, USA) at 2 × 10^3 cells per well in DMEM medium. For the analysis of the concentration- and time-dependent effect of the analysed compounds, cell monolayers were treated 24 h after seeding with concentrations 1 × 10^−6, 1 × 10^−5, and 1 × 10^−4 M for 24, 48, or 72 h. Cell viability was detected using sulforhodamine B (SRB) assay, based on the staining of cellular proteins. The assay was performed according to the procedure described by Skehan et al.. The cells were fixed with 10% trichloroacetic acid (TCA, CARLO ERBA Reagents GmbH, Emmendingen, Germany) for 1 h at 4 °C, washed with water, and stained for 15 min with 0.4% SRB (Sigma-Aldrich Chemie GmbH, Steinheim, Germany) in 1% acetic acid. The unbound SRB dye was rinsed with 1% acetic acid, while the protein-bound dye was extracted with a 10 mM Tris base (Sigma-Aldrich). […] The results were expressed as a percentage of the control, where the cell growth of the control is set to 100%. […] The selectivity index (SI) was determined according to the following formula:(2) SI=IC50 for fibroblast cell line/IC50 for tumour cell line
as §3

HeLa cells = test: SRB assay, HeLa cells; assay type: cell-based; conditions: Homo sapiens, HeLa, 72 h, read-out: IC50 HeLa
Experimental: as §4, §5, §3

SMILES	IC50 (Na^+, K^+-ATPase; literature value ref 35) [µM]	antioxidative ability (DPPH) [1]	logP at 30 min (physchem)	inhibition at 100 µM (eqBuChE) [%]	inhibition at 100 µM (eeAChE) [%]	IC50 (Na^+, K^+-ATPase; literature value ref 36) [µM]	IC50 [1] [µM]	IC50 (MDA-MB-468 cells) [µM]	IC50 (MRC-5 cells) [µM]	IC50 (MDA-MB-231 cells) [µM]	IC50 (HeLa cells) [µM]	IC50 (eqBuChE) [µM]
c1ccc2c(c1)CCNC2 [Compound 1a, 1,2,3,4-tetrahydroisoquinoline, reference compound]	25000	did not show antioxidative ability	1.4	2	2							
O=c1c(O)c(-c2ccc(O)c(O)c2)oc2cc(O)cc(O)c12 [Quercetin, reference compound]				72	58	46.3	19.3	65.9 ± 3.3	10.4 ± 0.52	76.6 ± 3.8	15.1 ± 2.67	22.1
O=C1O[C@H]([C@@H](O)CO)C(O)=C1O [Ascorbic acid]							0.62					
COc1cc2c(cc1OC)CNCC2 [Compound 1b, 6,7-dimethoxy-1,2,3,4-tetrahydroisoquinoline, reference compound]		did not show antioxidative ability	1.14	17.7	14.1							
